Consider 15 molecules from PubChem BioAssay (NCI).

The structures appear in SMILES notation. “And” between values parts separate entries of the source, which are not always exact repeats. Equal values may be shown once.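 Growth conditions: 96-well plates. Treatment: test compound, 48 hours, 5 concentrations. Analysis: linear interpolation between bracketing concentrations; unreached endpoints set to highest concentration. Abbreviation: GI50, concentration required for 50% inhibition of growth. Definition used: TGI = concentration required for complete inhibition of growth.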

In one assay the test system is SK-MEL-28 melanoma. The assay is described as follows: NCI anticancer screen, dose series, 48 h.
`C#Cc1c(F)ccc2cc(O)cc(-c3ncc4c(N5CC6CCC(C5)N6)nc(OC[C@@]56CCCN5C[C@H](F)C6)nc4c3F)c12`: the GI50 was 15.6 µM and the TGI was 29.1 µM.
In the same order, the values of `C=C(C)C(=O)Nc1ccc(NC(C)C)cc1` are above 100 µM and above 100 µM.
In the same order, the values of `C=C(C)C(=O)O[C@H]1CC(=C)[C@@H]2C[C@H](O)[C@](O)(CCl)[C@@H]2[C@H]2OC(=O)C(=C)[C@@H]21` are 2.02 µM and 3.9 µM.
`CCC1C2Cc3ccc(O)cc3C1(CC)CCN2C` (stereo unspecified) registered a TGI above 100 µM.
On to `COc1cnc2c(c1)C(=O)c1c-2n(CCCn2ccnc2)c(=O)c2cc(F)ccc12`, for which the GI50 is 0.191 µM and the TGI is 1.3 µM.
As to `CC1CCC(NC(=O)N(CCCl)N=O)CC1` (stereo unspecified), the GI50 is 18.8 µM; the TGI was 35.1 µM and 93.1 µM.
For `CC(C)[C@H](N)C(=O)N1CCC[C@H]1B(O)O`, the GI50 was above 100 µM and the TGI is above 100 µM.
Turning to `COc1ccc2cc(C(=O)/C=C/c3ccc(Cl)cc3Cl)ccc2c1`, the GI50 is 29.9 µM and the TGI was above 100 µM.

Another assay relates to EKVX NSCLC. The assay is described as follows: NCI anticancer screen, dose series, 48 h.
As for `O=[N+]([O-])O.[Cu+2].[NH-]CC[NH-].[NH-]CC[NH-]`, the GI50 is above 10 µM and the TGI was above 10 µM.
For the molecule `Cc1nn2c(/C=C3\C(=O)Nc4ccc(Cl)cc43)c(C)nc2s1`, the GI50 was 92 µM and the TGI is above 100 µM.
In the same order, the values of `COc1ccc(C(=O)OC2C(OC3C(O)COC(O[C@H]4C[C@H]5[C@@H]6CC=C7C[C@@H](O)CC[C@]7(C)[C@H]6CC[C@]5(C)[C@H]4[C@H](C)C(=O)CCC(C)C)C3OC(N)=O)OCC(O)C2O)cc1` (stereo partly specified) are 0.102 µM and 4.1 µM.
On to `c1ccc2[nH]c(-c3ccc(-c4nccc5c4[nH]c4ccccc45)cc3)nc2c1`, for which the GI50 is 3.45 µM and the TGI was 16.8 µM.
On to `COC(=O)c1nc(-c2ccccc2)oc1S(=O)(=O)Cc1ccccc1`, for which the GI50 was 14.4 µM and the TGI was 30.1 µM.
In the same order, the values of `CN(O)c1nc(N(C)O)nc(N2CCOCC2)n1` are 1.9 µM and above 100 µM.
As for `COc1ccc(-c2c[nH]c(C(=O)O)c2-c2cc(OC)c(OC)c(OC)c2)cc1`, the GI50 is 5.86 µM and the TGI was above 100 µM.
In the same order, the values of `C#Cc1c(F)ccc2cc(O)cc(-c3ncc4c(N5CC6CCC(C5)N6)nc(OC[C@@]56CCCN5C[C@H](F)C6)nc4c3F)c12` are 21.7 µM and above 54.6 µM.
In the same order, the values of `C=C(C)C(=O)Nc1ccc(NC(C)C)cc1` are above 100 µM and above 100 µM.
Consider `C=C(C)C(=O)O[C@H]1CC(=C)[C@@H]2C[C@H](O)[C@](O)(CCl)[C@@H]2[C@H]2OC(=O)C(=C)[C@@H]21`, for which the GI50 is 12.3 µM and the TGI turned out to be 25.7 µM.
Consider `CCC1C2Cc3ccc(O)cc3C1(CC)CCN2C` (stereo unspecified), for which the TGI was above 100 µM.
Consider `COc1cnc2c(c1)C(=O)c1c-2n(CCCn2ccnc2)c(=O)c2cc(F)ccc12`, for which the GI50 is 0.167 µM and the TGI was above 100 µM.
Consider `CC1CCC(NC(=O)N(CCCl)N=O)CC1` (stereo unspecified), for which the TGI was 119 µM.
Regarding `CC(C)[C@H](N)C(=O)N1CCC[C@H]1B(O)O`, the GI50 was above 100 µM and the TGI is above 100 µM.
For `COc1ccc2cc(C(=O)/C=C/c3ccc(Cl)cc3Cl)ccc2c1`, the GI50 is 9.79 µM and the TGI is 26.4 µM.

The test system of the next assay is OVCAR-3 ovarian. The assay can be described thus: NCI anticancer screen, dose series, 48 h.
As to `O=[N+]([O-])O.[Cu+2].[NH-]CC[NH-].[NH-]CC[NH-]`, the GI50 was above 10 µM and the TGI is above 10 µM.
`Cc1nn2c(/C=C3\C(=O)Nc4ccc(Cl)cc43)c(C)nc2s1`: the GI50 was 23.3 µM and the TGI was above 100 µM.
In the same order, the values of `COc1ccc(C(=O)OC2C(OC3C(O)COC(O[C@H]4C[C@H]5[C@@H]6CC=C7C[C@@H](O)CC[C@]7(C)[C@H]6CC[C@]5(C)[C@H]4[C@H](C)C(=O)CCC(C)C)C3OC(N)=O)OCC(O)C2O)cc1` (stereo partly specified) are 0.755 µM and 5.75 µM.
In the case of `c1ccc2[nH]c(-c3ccc(-c4nccc5c4[nH]c4ccccc45)cc3)nc2c1`, the GI50 is 1.8 µM and the TGI stood at 3.64 µM.
Turning to `COC(=O)c1nc(-c2ccccc2)oc1S(=O)(=O)Cc1ccccc1`, the GI50 was 1.94 µM and the TGI worked out at 3.52 µM.
As for `CN(O)c1nc(N(C)O)nc(N2CCOCC2)n1`, the GI50 is 10.2 µM and the TGI is above 100 µM.
For `COc1ccc(-c2c[nH]c(C(=O)O)c2-c2cc(OC)c(OC)c(OC)c2)cc1`, the GI50 was 2.74 µM and the TGI worked out at 8.05 µM.
With `C#Cc1c(F)ccc2cc(O)cc(-c3ncc4c(N5CC6CCC(C5)N6)nc(OC[C@@]56CCCN5C[C@H](F)C6)nc4c3F)c12`, the GI50 is 12.7 µM and the TGI is 25.9 µM.
As for `C=C(C)C(=O)Nc1ccc(NC(C)C)cc1`, the GI50 was above 100 µM and the TGI was above 100 µM.
Turning to `C=C(C)C(=O)O[C@H]1CC(=C)[C@@H]2C[C@H](O)[C@](O)(CCl)[C@@H]2[C@H]2OC(=O)C(=C)[C@@H]21`, the GI50 was 1.81 µM and the TGI was 4.38 µM.
In the case of `CCC1C2Cc3ccc(O)cc3C1(CC)CCN2C` (stereo unspecified), the TGI is above 100 µM.
`COc1cnc2c(c1)C(=O)c1c-2n(CCCn2ccnc2)c(=O)c2cc(F)ccc12`: the GI50 was 0.0437 µM and the TGI stood at 0.382 µM.
The molecule `CC1CCC(NC(=O)N(CCCl)N=O)CC1` (stereo unspecified) displayed a TGI of 70.4 µM.
For the molecule `CC(C)[C@H](N)C(=O)N1CCC[C@H]1B(O)O`, the GI50 is above 100 µM and the TGI was above 100 µM.
Regarding `COc1ccc2cc(C(=O)/C=C/c3ccc(Cl)cc3Cl)ccc2c1`, the GI50 is 16.8 µM and the TGI stood at 43.9 µM.
